ChEMBL document CHEMBL3875162, “Synthesis and biological evaluation of new benzimidazole-thiazolidinedione hybrids as potential cytotoxic and apoptosis inducing agents” (Eur J Med Chem, 2016)
Activity calls are given as the source filed them. The rule behind the calls is not given here.

Tests used:
[1] = system: A549; experiment: Induction of apoptosis in human A549 cells assessed as early apoptotic cells at 10 uM after 24 hrs by Annexin V-FITC/propidium iodide staining based flow cytometry (reference value: 2.6%); type: functional
[2] = system: A549; experiment: Induction of apoptosis in human A549 cells assessed as necrotic cells at 5 uM after 24 hrs by Annexin V-FITC/propidium iodide staining based flow cytometry (reference value: 2.3%); type: functional
[3] = system: A549; experiment: Induction of apoptosis in human A549 cells assessed as nuclear condensation at 5 to 15 uM after 24 hrs by DAPI staining based fluorescence microscopic method; type: functional, cell-based
[4] = system: A549; experiment: Induction of apoptosis in human A549 cells assessed as viable cells at 15 uM after 24 hrs by Annexin V-FITC/propidium iodide staining based flow cytometry (reference value: 94%); type: functional; conditions: A549, 24 h, read-out: Activity
[5] = system: A549; experiment: Induction of apoptosis in human A549 cells assessed as necrotic cells at 15 uM after 24 hrs by Annexin V-FITC/propidium iodide staining based flow cytometry (reference value: 2.3%); type: functional
[6] = Cell cycle arrest in human A549 cells assessed as accumulation at G0/G1 phase at 5 uM after 24 hrs by propidium iodide staining-based flow cytometry (reference value: 66.6%); type: functional
[7] = system: A549; experiment: Induction of apoptosis in human A549 cells assessed as decrease in cell viability at 5 to 15 uM after 24 hrs by phase contrast microscopic method; type: functional, cell-based
[8] = system: A549; experiment: Induction of apoptosis in human A549 cells assessed as viable cells at 10 uM after 24 hrs by Annexin V-FITC/propidium iodide staining based flow cytometry (reference value: 94%); type: functional; conditions: A549, 24 h, read-out: Activity
[9] = system: A549; experiment: Induction of apoptosis in human A549 cells assessed as late apoptotic cells at 5 uM after 24 hrs by Annexin V-FITC/propidium iodide staining based flow cytometry (reference value: 0.8%); type: functional
[10] = Antimigratory activity in human A549 cells assessed as cell migration at 5 uM after 24 hrs by phase contrast microscopy-based wound healing assay relative to control; type: functional
[11] = system: A549; experiment: Induction of apoptosis in human A549 cells assessed as increase in superoxide production after 24 to 48 hrs by mitoSOX red-probe based fluorescence microscopic method; type: functional, cell-based
[12] = Cytotoxicity against human MDA-MB-231 cells assessed as cell growth inhibition after 48 hrs by MTT assay; type: functional, cell-based; conditions: MDA-MB-231, 48 h

Which Activity [1] does the source give for `Cn1c(/C=C2\SC(=O)N(CC(=O)Nc3nc(-c4ccccc4)cs3)C2=O)nc2ccccc21` here?
The Activity was 15.8%.

What about the Activity [2] of the same molecule?
Its Activity is 0.6%.

What about the Activity [3] of the same molecule?
Its Activity is “Active”.

And the viability at 15 µM [4]?
Its viability at 15 µM is 66.8%.

And the Activity [5]?
Its Activity is 2.5%.

And the Activity [6]?
The Activity was 48.9%.

And the Activity [7]?
Its Activity is “Active”.

And the viability at 10 µM [8]?
The viability at 10 µM was 73.3%.

And the Activity [9]?
Its Activity is 6.2%.

What about the Activity [10] of the same molecule?
Its Activity is 77.8%.

And the Activity [11]?
The Activity was “Dose-dependent effect”.

And the IC50 [12]?
The IC50 was 29.2 µM.
